Test results taken from patent US6426352B1, “Sulfonamide inhibitors of farnesyl-protein transferase” (Schering Corporation, priority 1997, dated 2002).

Experiments:
[1] = biological target: T1, partially purified rat brain farnesyl protein transferase (FPT) (Rattus norvegicus, UniProt Q02293+Q04631); test: In vitro enzyme assay: inhibition of Ras-CVLS farnesylation by farnesyl protein transferase (H-ras FPT); assay type: biochemical
T1 construct: partially purified rat brain farnesyl protein transferase (FPT); from tissue; host or cells: rat brain
Method: 1. In vitro enzyme assays: FPT IC50 (inhibition of farnesyl protein transferqase, in vitro enzyme assay) are determined by the methods disclosed in […] or WO 95/10516.

[2] = test system: Ras processing in COS cells; test: Cell-based assay: COS cells activity, inhibition of Ras processing
Method: 2. Cell-based assay. COS IC50 values refer to the COS cells activity inhibition of Ras processing, are determined by the methods disclosed in […] or WO 95/10516.

SMILES	IC50 [1] [nM]	melting point [°C]	IC50 [2] [nM]
CN(C)S(=O)(=O)N1CCC(C2c3ncc(Br)cc3CCc3cc(Cl)cc(Cl)c32)CC1 (single isomer, unassigned; (+)) [Example 2, (+)-4-(3-Bromo-8,10-dichloro-6,11-dihydro-5H-benzo[5,6,]cyclohepta[1,2-b]pyridin-11-yl)-N-N-dimethyl-1-piperidinesulfonamide]	164	202 to 203	
CC(C)S(=O)(=O)N1CCC(C2c3ncc(Br)cc3CCc3cc(Cl)cc(Br)c32)CC1 (single isomer, unassigned; (+)) [Example 7, (+)-4-(3,10-Dibromo-8-chloro-11-dihydro-5H-benzo[5,6]cyclohepta[1,2-b]pyridin-11-yl)-1-(isopropylsulfonyl)pipiridine]	110	203 to 205	
CCCCS(=O)(=O)N1CCC(C2c3ncc(Br)cc3CCc3cc(Cl)cc(Br)c32)CC1 (single isomer, unassigned; (+)) [Example 8, (+)-4-(3,10-Dibromo-8-chloro-11-dihydro-5H-benzo[5,6]cyclohepta[1,2-b]pyridin-11-yl)-1-(butylsulfonyl)pipiridine]	320	73 to 74	
O=S(=O)(N1CCC(C2c3ncc(Br)cc3CCc3cc(Cl)cc(Br)c32)CC1)C(F)(F)F (single isomer, unassigned; (+)) [Example 9, (+)-4-(3,10-Dibromo-8-chloro-11-dihydro-5H-benzo[5,6]cyclohepta[1,2-b]pyridin-11-yl)-1-(trifluoromethylsulfonyl)pipiridine]	34	111 to 112	
O=S(=O)(CC(F)(F)F)N1CCC(C2c3ncc(Br)cc3CCc3cc(Cl)cc(Br)c32)CC1 (single isomer, unassigned; (+)) [Example 10, (+)-4-(3,10-Dibromo-8-chloro-11-dihydro-5H-benzo[5,6]cyclohepta[1,2-b]pyridin-11-yl)-1-(trifluoroethylsulfonyl)pipiridine]	89	174 to 175	
C=CS(=O)(=O)N1CCC(C2c3ncc(Br)cc3CCc3cc(Cl)cc(Br)c32)CC1 (single isomer, unassigned; (+)) [Example 11, (+)-4-(3,10-Dibromo-8-chloro-11-dihydro-5H-benzo[5,6]cyclohepta[1,2-b]pyridin-11-yl)-1-(vinylsulfonyl)pipiridine]	32		
O=S(=O)(c1ccccc1)N1CCC([C@H]2c3ncc(Br)cc3CCc3cc(Cl)cc(Br)c32)CC1 [Example 12, (+)-4-(3,10-Dibromo-8-chloro-6,11-dihydro-5H-benzo[5,6]cyclohepta[1,2-b]pyridin-11(R)-yl)-1-(phenylsulfonyl)pipiridine]	179		
Cn1cnc(S(=O)(=O)N2CCC([C@H]3c4ncc(Br)cc4CCc4cc(Cl)cc(Br)c43)CC2)c1 [Example 13, (+)-4-(3,10-Dibromo-8-chloro-6,11-dihydro-5H-benzo[5,6]cyclohepta[1,2-b]pyridin-11(R)-yl)-1-[(1-methyl-1H-imidazol-4-yl)sulfonyl]pipiridine]	85		
O=S(=O)(c1ccc(-c2ccon2)s1)N1CCC([C@H]2c3ncc(Br)cc3CCc3cc(Cl)cc(Br)c32)CC1 [Example 14, (+)-4-(3,10-Dibromo-8-chloro-6,11-dihydro-5H-benzo[5,6]cyclohepta[1,2-b]pyridin-11(R)-yl)-1-[(5-(3-isoxazolyl)-2-thienyl]sulfonyl]pipiridine]	276		

More lines, in order of falling IC50 [1], values ahead:

IC50 [1] [nM]	melting point [°C]	SMILES	IC50 [2] [nM]
32	97 to 98	CCCS(=O)(=O)N1CCC(C2c3ncc(Br)cc3CCc3cc(Cl)cc(Br)c32)CC1 (single isomer, unassigned; (+)) [Example 6, (+)-4-(3,10-Dibromo-8-chloro-11-dihydro-5H-benzo[5,6]cyclohepta[1,2-b]pyridin-11-yl)-1-(propylsulfonyl)pipiridine]	
26	133 to 134	NS(=O)(=O)N1CCC(C2c3ncc(Br)cc3CCc3cc(Cl)cc(Cl)c32)CC1 (single isomer, unassigned; (+)) [Example 3, (+)-4-(3-Bromo-8,10-dichloro-6,11-dihydro-5H-benzo[5,6]cyclohepta[1,2-b]pyridin-11-yl)-1-(aminosulfonyl)piperidine]	
15.4	202 to 203	CCS(=O)(=O)N1CCC(C2c3ncc(Br)cc3CCc3cc(Cl)cc(Br)c32)CC1 (single isomer, unassigned; (+)) [Example 5, (+)-4-(3,10-Dibromo-8-chloro-11-dihydro-5H-benzo[5,6]cyclohepta[1,2-b]pyridin-11-yl)-1-(ethylsulfonyl)pipiridine]	
8	160 to 163	CS(=O)(=O)N1CCC(C2c3ncc(Br)cc3CCc3cc(Cl)cc(Cl)c32)CC1 (single isomer, unassigned; (+)) [Example 1, (+)-4-(3-Bromo-8,10-dichloro-6,11-dihydro-5H-benzo[5,6]cyclohepta[1,2-b]pyridin-11-yl)-1-(methylsulfonyl)pipiridine]	420
7	216 to 217	CS(=O)(=O)N1CCC(C2c3ncc(Br)cc3CCc3cc(Cl)cc(Br)c32)CC1 (single isomer, unassigned; (+)) [Example 4, (+)-4-(3,10-Dibromo-8-chloro-11-dihydro-5H-benzo[5,6]cyclohepta[1,2-b]pyridin-11-yl)-1-(methylsulfonyl)pipiridine]	15
